Results published in patent US12673039B2, “Methods of inducing autophagy using coumarin derivatives and related compounds” (Buck Institute for Research on Aging, priority 2019, dated 2026).

How the values were obtained:
[1] = test system: TSC1+/− human neuronal SH-SY5Y cells; experiment: TAU, phosphorylated-TAU, insoluble tau and viability in TSC1 mutant SH-SY5Y neuronal cells; assay type: cell-based
Experimental: FIG. 8 A) Representative Western blot analysis of detergent-insoluble tau levels in control versus three independent TSC1-mutant SY5Y cell lines (A1, A3, A3A9) treated with 10 μM C1 (AIC106) versus vehicle. FIG. 8B) Quantitation of insoluble tau levels in control (Emty) versus mutant TSC1 lines treated with C1 (AIC106) versus vehicle (−). Values represent fold change versus vehicle-treated controls, *p<0.01.
FIG. 23, panels A-H: FXR modulation enhances HLH-30 expression in human neuronal SH-SY5Y cells. Panel A) Effects of AIC106 on human FXR activity was determined in a mammalian one-hybrid based kit assay by quantifying changes in the luciferase activity of FXR ligand (GW4064, GW) induced treatment. [N=3 independent experiments (mean±SD). ****p<0.0001, by one-way ANOVA with Tukey's multiple comparisons test]. Panel B) Protein expression of TFEB, cathepsin-D (CAT-D) and small heterodimer partner-1 (SHP-1) was determined by immunoblot in neuronal SH-SY5Y cells post-24 hours of treatment with AIC106 and DMSO-control. Panel C) AIC106 enhances autophagic flux in neuronal SH-SY5Y cells. Autophagic flux in DMSO-control and AIC106 treated neuronal cells was determined by quantifying levels of autophagosome specific LC3-II protein both in presence and absence of autophagy inhibitor bafliomycin A1 (Baf A, 10 nM). Panel D) Relative fold change in the band intensity of LC3-II protein, normalized to loading control actin. Values are relative to DMSO-control. [N=3 independent experiments (mean±SD). *p<0.05 and ****p<0.0001, by one-way ANOVA with Tukey's multiple comparisons test]. Panel E) Effects of AIC106 treatment for 72 hours on basal TAU and phosphorylated-TAU in differentiated human neuronal SH-SHY5Y and heterozygous TSC1(+/−) mutant SH-SY5Y neuronal cells were quantitated by immunoblotting following total protein extraction. Relative fold change in the band intensity compared to SH-SY5Y control treatment for (panel F) total TAU and (panel G) phosphorylated-TAU, normalized to loading control GAPDH. [N=3 independent experiments (mean±SD). *p<0.05 and **p<0.01, by one-way ANOVA with Sidak's multiple comparisons test]. Panel H) AIC106 treatment improves viability and health of differentiated SH-SY5Y-TSC1(+/−) neuronal cells. Images were taken post-96 hours after treatment of differentiated neuronal cells with AIC106.
The rat dopaminergic cell line 1RB3AN27 (N27) was grown in RPMI 1640 medium supplemented with 10% fetal calf serum (Invitrogen), 100 U/ml penicillin, and 100 μg/ml streptomycin. SH-SY5Y TSC1+/− lines were generated as described previously (Olney et al., 2017). […]

[2] = target: T1, human FXR (Homo sapiens, UniProt Q96RI1); experiment: Human FXR antagonist reporter assay; assay type: cell-based
T1 construct: purchased Cayman
T1 sequence (Q96RI1 1-486): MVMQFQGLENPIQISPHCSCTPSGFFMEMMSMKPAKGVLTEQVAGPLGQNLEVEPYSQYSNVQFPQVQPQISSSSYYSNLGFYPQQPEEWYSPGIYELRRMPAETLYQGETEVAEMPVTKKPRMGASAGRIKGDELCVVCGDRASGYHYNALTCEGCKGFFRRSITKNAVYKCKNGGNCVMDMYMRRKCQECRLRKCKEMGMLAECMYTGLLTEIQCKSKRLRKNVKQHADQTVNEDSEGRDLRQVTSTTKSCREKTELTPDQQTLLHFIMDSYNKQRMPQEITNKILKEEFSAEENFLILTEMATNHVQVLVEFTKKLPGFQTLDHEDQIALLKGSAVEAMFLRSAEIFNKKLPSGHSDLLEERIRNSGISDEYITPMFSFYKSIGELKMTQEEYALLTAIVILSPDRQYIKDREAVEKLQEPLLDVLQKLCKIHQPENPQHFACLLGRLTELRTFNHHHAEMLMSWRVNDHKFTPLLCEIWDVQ
Experimental: FIG. 7 illustrates that coumarin 106 (“C1”, “AIC106”) acts as a potent FXR antagonist. The ability of C1 (AIC106) (10 μM and 30 μM) to inhibit activation of the FXR agonist […] (GW, 150 μM) was interrogated using a commercially available kit (Indigo Biosciences) versus the established natural FXR ligands TUDCA and UDCA (50 μM and 100 μM). Values are fold induction versus untreated controls; ****p<0.01 versus GW; **p<0.05 versus GW.
FIG. 23, panels A-H: FXR modulation enhances HLH-30 expression in human neuronal SH-SY5Y cells. Panel A) Effects of AIC106 on human FXR activity was determined in a mammalian one-hybrid based kit assay by quantifying changes in the luciferase activity of FXR ligand (GW4064, GW) induced treatment. […] Panel B) Protein expression of TFEB, cathepsin-D (CAT-D) and small heterodimer partner-1 (SHP-1) was determined by immunoblot in neuronal SH-SY5Y cells post-24 hours of treatment with AIC106 and DMSO-control. […] Autophagic flux in DMSO-control and AIC106 treated neuronal cells was determined by quantifying levels of autophagosome specific LC3-II protein both in presence and absence of autophagy inhibitor bafliomycin A1 (Baf A, 10 nM). […]
Antagonistic activity of the AIC106 on human FXR was determined using a commercially available FXR Human reporter assay kit (Cayman) according to the supplied manual. […] Luminescence was quantified. […]

[3] = TSC1+/− SH-SY5Y cells, 72 hours

Q: `O=c1oc2c3c4c(cc2c2c1CCC2)CCCN4CCC3` [C1, 2,3,6,7,10,11-Hexahydro-1H,5H-cyclopenta(3,4)(1)benzopyrano(6,7,8-ij)quinolizin-12(9H)-one] was tested. Which TAU levels [1, 3] did it give?
A: without significantly changing TAU levels

Q: What about the phosphorylated-TAU [1, 3] of the same molecule?
A: decrease of phosphorylated-TAU

Q: What about the insoluble tau levels ([1]; TSC1-mutant SY5Y cell lines, 10 μM C1 (FIG. 8)) of the same molecule?
A: reduce levels of insoluble tau levels

Q: What about the “viability and general health of differentiated cells” value ([1]; differentiated TSC1+/− SH-SY5Y cells, 96 hours) of the same molecule?
A: prevented loss in viability

Q: What about the “FXR activation elicited by the FXR agonist GW4064” value ([2]; C1 10 μM and 30 μM versus TUDCA and UDCA (FIG. 7)) of the same molecule?
A: significantly inhibited FXR activation

Q: And the “ligand-induced activation of human FXR” value ([2]; FXR ligand GW4064 (FIG. 23, panel A))?
A: prevented ligand-induced activation of the human FXR protein
